Experimental data published in patent US20120115869A1, “TETRAZOLE DERIVATIVES” (MERCK SERONO S.A., priority 2009, published 2012).

Target: T1, CRTH2 (DP2) (Homo sapiens, UniProt Q9Y5Y4)
T1 construct: host or cells: CHO cells
T1 sequence (Q9Y5Y4 1-395): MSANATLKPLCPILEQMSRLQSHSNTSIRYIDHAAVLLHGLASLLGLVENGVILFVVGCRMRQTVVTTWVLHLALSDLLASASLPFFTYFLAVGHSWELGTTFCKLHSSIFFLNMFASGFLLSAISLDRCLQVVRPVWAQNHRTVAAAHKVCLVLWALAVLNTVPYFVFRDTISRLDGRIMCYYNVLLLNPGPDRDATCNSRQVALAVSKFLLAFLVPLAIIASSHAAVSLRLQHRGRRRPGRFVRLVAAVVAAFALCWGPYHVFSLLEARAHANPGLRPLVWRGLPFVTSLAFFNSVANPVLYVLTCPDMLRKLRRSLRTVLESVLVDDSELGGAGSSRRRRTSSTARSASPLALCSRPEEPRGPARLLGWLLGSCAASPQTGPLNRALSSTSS
Assay: Radioligand binding Scintillation Proximity Assay ([3H]PGD2, hCRTH2-CHO cell membranes)
Conditions: 1.5 nM [3H]PGD2, hCRTH2-CHO cell membranes, SPA
Procedure: Adherent CHO cells expressing hCRTH2 (Euroscreen, Belgium) were cultured in 225 cm^2 cell culture flasks (Corning, USA) in 30 ml of medium. After two rinses of phosphate buffered saline (PBS), cells were harvested in 10 ml of PBS containing 1 mM EDTA, centrifuged at 500×g for 5 min at 4° C. and frozen at −80° C. The pellet was re-suspended in 50 mM Tris-HCl, pH 7.4, 2 mM EDTA, 250 mM Sucrose, containing protease inhibitor cocktail tablets, (Complete EDTA-free, Roche, Germany) and incubated 30 min at 4° C. Cells were disrupted by nitrogen cavitation (Parr Instruments, USA) at 4° C. (800 p.s.i. for 30 min), and centrifuged at 500×g for 10 min at 4° C. Pellet containing nuclei and cellular debris was discarded and supernatant was centrifuged 60 min at 4° C. at 45000×g. Membrane pellet was re-suspended in storage buffer (10 mM HEPES/KOH pH 7.4, 1 mM EDTA, 250 mM sucrose, protease inhibitor cocktail tablets) using Dounce homogenization and frozen in liquid nitrogen, and stored at 80° C.
Non-specific binding was determined in the presence of 10 μM PGD2 (Cayman, USA). Competing Compounds of Formula (I) were diluted in dimethylsulphoxide so that the total volume of dimethylsulfoxide was kept constant at 1% dimethylsulphoxide (Me2SO). Serial dilutions of […] were prepared and 10 μl each of the compounds of Formula (I) stock solutions were added to the binding assay reagents and incubated for 90 min with agitation at room temperature.

Compound	IC50 [nM]
CCC(=O)N(Cc1cccc(C#CC(C)(C)C)c1)c1cccc(-c2nnn[nH]2)c1 [Example 50, N-[3-(3,3-dimethylbut-1-yn-1-yl)benzyl]-N-[3-(1H-tetrazol-5-yl)phenyl]propanamide]	1300
CCC(=O)N(Cc1cccnc1)c1cccc(-c2nnn[nH]2)c1 [Example 51, N-(pyridin-3-ylmethyl)-N-[3-(1H-tetrazol-5-yl)phenyl]propanamide]	6750
CCC(=O)N(Cc1ccncc1)c1cccc(-c2nnn[nH]2)c1 [Example 52, N-(pyridin-4-ylmethyl)-N-[3-(1H-tetrazol-5-yl)phenyl]propanamide]	6680
CCCCC(=O)N(Cc1ccc(C(F)(F)F)cc1)c1cc(F)cc(-c2nnn[nH]2)c1 [Example 60, N-[3-fluoro-5-(1H-tetrazol-5-yl)phenyl]-N-[4-(trifluoromethyl)benzyl]pentanamide]	2.6
CCC(=O)N(Cc1cccc(-c2c(C)noc2C)c1)c1cccc(-c2nnn[nH]2)c1 [Example 61, N-[3-(3,5-dimethylisoxazol-4-yl)benzyl]-N-[3-(1H-tetrazol-5-yl)phenyl]propanamide]	305
CCC(=O)N(Cc1cccc(-c2cnoc2)c1)c1cccc(-c2nnn[nH]2)c1 [Example 62, N-(3-isoxazol-4-ylbenzyl)-N-[3-(1H-tetrazol-5-yl)phenyl]propanamide]	769
CCC(=O)N(Cc1cccc(-c2sc(C)nc2C)c1)c1cccc(-c2nnn[nH]2)c1 [Example 63, N-[3-(2,4-dimethyl-1,3-thiazol-5-yl)benzyl]-N-[3-(1H-tetrazol-5-yl)phenyl]propanamide]	235
CCC(=O)N(Cc1cccc(-c2cccnc2)c1)c1cccc(-c2nnn[nH]2)c1 [Example 64, N-(3-pyridin-3-ylbenzyl)-N-[3-(1H-tetrazol-5-yl)phenyl]propanamide]	403
CCC(=O)N(Cc1ccc(S(C)(=O)=O)cc1)c1cccc(-c2nnn[nH]2)c1 [Example 65, N-[4-(methylsulfonyl)benzyl]-N-[3-(1H-tetrazol-5-yl)phenyl]propanamide]	75
CCC(=O)N(Cc1ccc(-c2cc[nH]n2)cc1)c1cccc(-c2nnn[nH]2)c1 [Example 66, N-[4-(1H-pyrazol-3-yl)benzyl]-N-[3-(1H-tetrazol-5-yl)phenyl]propanamide]	973
CCOCC(=O)N(Cc1ccc(OC(F)(F)F)cc1)c1cc(Cl)cc(-c2nnn[nH]2)c1 [Example 67, N-[3-chloro-5-(1H-tetrazol-5-yl)phenyl]-2-ethoxy-N-[4-(trifluoromethoxy)benzyl]acetamide]	16
CCC(=O)N(Cc1ccc(-c2ccccc2)cc1)c1cccc(-c2nnn[nH]2)c1 [Example 69, N-(biphenyl-4-ylmethyl)-N-[3-(1H-tetrazol-5-yl)phenyl]propanamide]	506
CCC(=O)N(Cc1ccc(-c2cn[nH]c2)cc1)c1cccc(-c2nnn[nH]2)c1 [Example 70, N-[4-(1H-pyrazol-4-yl)benzyl]-N-[3-(1H-tetrazol-5-yl)phenyl]propanamide]	455
CCC(=O)N(Cc1ccc(-c2c(C)noc2C)cc1)c1cccc(-c2nnn[nH]2)c1 [Example 71, N-[4-(3,5-dimethylisoxazol-4-yl)benzyl]-N-[3-(1H-tetrazol-5-yl)phenyl]propanamide]	182
CCC(=O)N(Cc1ccc2ncccc2c1)c1cccc(-c2nnn[nH]2)c1 [Example 72, N-(quinolin-6-ylmethyl)-N-[3-(1H-tetrazol-5-yl)phenyl]propanamide]	1110
CCC(=O)N(Cc1cccc(C)c1)c1cccc(-c2nnn[nH]2)c1 [Example 73, N-(3-methylbenzyl)-N-[3-(1H-tetrazol-5-yl)phenyl]propanamide]	662
CCCCC(=O)N(Cc1ccc(O)cc1)c1cccc(-c2nnn[nH]2)c1 [Example 74, N-(4-hydroxybenzyl)-N-[3-(1H-tetrazol-5-yl)phenyl]pentanamide]	169

The next lines start with the values.

IC50 [nM]	Compound
7.1	CCC(=O)N(Cc1cccc(OC(C)C)c1)c1cc(F)cc(-c2nnn[nH]2)c1 [Example 75, N-[3-fluoro-5-(1H-tetrazol-5-yl)phenyl]-N-(3-isopropoxybenzyl)propanamide]
18	CCC(=O)N(Cc1ccc(Cl)c(OC(F)(F)F)c1)c1cc(F)cc(-c2nnn[nH]2)c1 [Example 76, N-[4-chloro-3-(trifluoromethoxy)benzyl]-N-[3-fluoro-5-(1H-tetrazol-5-yl)phenyl]propanamide]
16	CCC(=O)N(Cc1cccc(SC(F)(F)F)c1)c1cc(F)cc(-c2nnn[nH]2)c1 [Example 77, N-[3-fluoro-5-(1H-tetrazol-5-yl)phenyl]-N-{3-[(trifluoromethyl)thio]benzyl}propanamide]
140	CCCCC(=O)N(Cc1cccc(O)c1)c1cccc(-c2nnn[nH]2)c1 [Example 79, N-(3-hydroxybenzyl)-N-[3-(1H-tetrazol-5-yl)phenyl]pentanamide]
65	CCC(=O)N(Cc1ccc2ccccc2n1)c1cc(F)cc(-c2nnn[nH]2)c1 [Example 80, N-[3-fluoro-5-(1H-tetrazol-5-yl)phenyl]-N-(quinolin-2-ylmethyl)propanamide]
34	CCC(=O)N(Cc1cccc(-c2cccnc2)c1)c1cc(F)cc(-c2nnn[nH]2)c1 [Example 81, N-[3-fluoro-5-(1H-tetrazol-5-yl)phenyl]-N-(3-pyridin-3-ylbenzyl)propanamide]
2.6	CCC(=O)N(Cc1ccc(SC(F)(F)F)cc1)c1cc(F)cc(-c2nnn[nH]2)c1 [Example 82, N-[3-fluoro-5-(1H-tetrazol-5-yl)phenyl]-N-{4-[(trifluoromethyl)thio]benzyl}propanamide]
25	CCC(=O)N(Cc1cccc(-c2ccncc2)c1)c1cc(F)cc(-c2nnn[nH]2)c1 [Example 83, N-[3-fluoro-5-(1H-tetrazol-5-yl)phenyl]-N-(3-pyridin-4-ylbenzyl)propanamide]
19	CCC(=O)N(Cc1cccc(-c2c(C)noc2C)c1)c1cc(F)cc(-c2nnn[nH]2)c1 [Example 85, N-[3-(3,5-dimethylisoxazol-4-yl)benzyl]-N-[3-fluoro-5-(1H-tetrazol-5-yl)phenyl]propanamide]
170	CCNS(=O)(=O)c1cccc(-c2ccc(CN(C(=O)CC)c3cc(F)cc(-c4nnn[nH]4)c3)cc2)c1 [Example 86, N-({3′-[(ethylamino)sulfonyl]biphenyl-4-yl}methyl)-N-[3-fluoro-5-(1H-tetrazol-5-yl)phenyl]propanamide]
185	CCC(=O)N(Cc1ccc(-c2cccc(S(C)(=O)=O)c2)cc1)c1cc(F)cc(-c2nnn[nH]2)c1 [Example 87, N-[3-fluoro-5-(1H-tetrazol-5-yl)phenyl]-N-{[3′-(methylsulfonyl)biphenyl-4-yl]methyl}propanamide]
21	CCC(=O)N(Cc1ccc(-c2cn(C)nc2C)cc1)c1cc(F)cc(-c2nnn[nH]2)c1 [Example 88, N-[4-(1,3-dimethyl-1H-pyrazol-4-yl)benzyl]-N-[3-fluoro-5-(1H-tetrazol-5-yl)phenyl]propanamide]
57	CCC(=O)N(Cc1ccc(-c2ccncc2)cc1)c1cc(F)cc(-c2nnn[nH]2)c1 [Example 89, N-[3-fluoro-5-(1H-tetrazol-5-yl)phenyl]-N-(4-pyridin-4-ylbenzyl)propanamide]
